According to ChEMBL document CHEMBL3044826, “Design, synthesis and biological evaluation of some novel substituted 2-mercapto-3-phenethylquinazolines as antitumor agents” (2013):

Tests used:
Type in all cases: functional
SF-539 = test: Cytotoxicity against Homo sapiens (human) SF539 cells assessed as growth inhibition at 10 uM after 48 hr by coulter counter analysis; settings: SF-539, 48 h, read-out: GI
COLO 205 = test: Cytotoxicity against Homo sapiens (human) COLO205 cells assessed as growth inhibition at 10 uM after 48 hr by coulter counter analysis; settings: COLO 205, 48 h, read-out: GI
SNB-19 = test: Cytotoxicity against Homo sapiens (human) SNB19 cells assessed as growth inhibition at 10 uM after 48 hr by coulter counter analysis; settings: SNB-19, 48 h, read-out: GI
M14 = test: Cytotoxicity against Homo sapiens (human) M14 cells assessed as growth inhibition at 10 uM after 48 hr by coulter counter analysis; settings: M14, 48 h, read-out: GI
Malme-3M = test: Cytotoxicity against Homo sapiens (human) MALME-3M cells assessed as growth inhibition at 10 uM after 48 hr by coulter counter analysis; settings: read-out: GI
MDA-MB-468 = test: Cytotoxicity against Homo sapiens (human) MDA-MB-468 cells assessed as growth inhibition at 10 uM after 48 hr by coulter counter analysis; settings: MDA-MB-468, 48 h, read-out: GI
HOP-62 = test: Cytotoxicity against Homo sapiens (human) HOP62 cells assessed as growth inhibition at 10 uM after 48 hr by coulter counter analysis; settings: HOP-62, 48 h, read-out: GI
EKVX = test: Cytotoxicity against Homo sapiens (human) EKVX cells assessed as growth inhibition at 10 uM after 48 hr by coulter counter analysis; settings: read-out: GI
UACC-62 = test: Cytotoxicity against Homo sapiens (human) UACC62 cells assessed as growth inhibition at 10 uM after 48 hr by coulter counter analysis; settings: UACC-62, 48 h, read-out: GI
TK-10 = test: Cytotoxicity against Homo sapiens (human) TK10 cells assessed as growth inhibition at 10 uM after 48 hr by coulter counter analysis; settings: TK-10, 48 h, read-out: GI
SNB-75 = test: Cytotoxicity against Homo sapiens (human) SNB75 cells assessed as growth inhibition at 10 uM after 48 hr by coulter counter analysis; settings: SNB-75, 48 h, read-out: GI
PC-3 = test: Cytotoxicity against Homo sapiens (human) PC3 cells assessed as growth inhibition at 10 uM after 48 hr by coulter counter analysis; settings: PC-3, 48 h, read-out: GI
OVCAR-3 = test: Cytotoxicity against Homo sapiens (human) OVCAR3 cells assessed as growth inhibition at 10 uM after 48 hr by coulter counter analysis; settings: OVCAR-3, 48 h, read-out: GI
HT-29 = test: Cytotoxicity against Homo sapiens (human) HT-29 cells assessed as growth inhibition at 10 uM after 48 hr by coulter counter analysis; settings: HT-29, 48 h, read-out: GI
A498 = test: Cytotoxicity against Homo sapiens (human) A498 cells assessed as growth inhibition at 10 uM after 48 hr by coulter counter analysis; settings: A498, 48 h, read-out: GI
SN12C = test: Cytotoxicity against Homo sapiens (human) SN12C cells assessed as growth inhibition at 10 uM after 48 hr by coulter counter analysis; settings: read-out: GI
SW-620 = test: Cytotoxicity against Homo sapiens (human) SW620 cells assessed as growth inhibition at 10 uM after 48 hr by coulter counter analysis; settings: SW-620, 48 h, read-out: GI
SF-268 = test: Cytotoxicity against Homo sapiens (human) SF268 cells assessed as growth inhibition at 10 uM after 48 hr by coulter counter analysis; settings: SF-268, 48 h, read-out: GI
KM12 = test: Cytotoxicity against Homo sapiens (human) KM12 cells assessed as growth inhibition at 10 uM after 48 hr by coulter counter analysis; settings: KM12, 48 h, read-out: GI
BT-549 = test: Cytotoxicity against Homo sapiens (human) BT549 cells assessed as growth inhibition at 10 uM after 48 hr by coulter counter analysis; settings: BT-549, 48 h, read-out: GI
HCC 2998 = test: Cytotoxicity against Homo sapiens (human) HCC2998 cells assessed as growth inhibition at 10 uM after 48 hr by coulter counter analysis; settings: HCC 2998, 48 h, read-out: GI
[1] = Cytotoxicity against Homo sapiens (human) NCI-ADR-RES cells assessed as growth inhibition at 10 uM after 48 hr by coulter counter analysis; settings: read-out: GI
HCT-116 = test: Cytotoxicity against Homo sapiens (human) HCT116 cells assessed as growth inhibition at 10 uM after 48 hr by coulter counter analysis; settings: HCT-116, 48 h, read-out: GI
LOX IMVI = test: Cytotoxicity against Homo sapiens (human) LOXIMVI cells assessed as growth inhibition at 10 uM after 48 hr by coulter counter analysis; settings: read-out: GI
UO-31 = test: Cytotoxicity against Homo sapiens (human) UO31 cells assessed as growth inhibition at 10 uM after 48 hr by coulter counter analysis; settings: UO-31, 48 h, read-out: GI
CAKI-1 = test: Cytotoxicity against Homo sapiens (human) Caki1 cells assessed as growth inhibition at 10 uM after 48 hr by coulter counter analysis; settings: CAKI-1, 48 h, read-out: GI
SK-MEL-5 = test: Cytotoxicity against Homo sapiens (human) SK-MEL-5 cells assessed as growth inhibition at 10 uM after 48 hr by coulter counter analysis; settings: SK-MEL-5, 48 h, read-out: GI
A549 = test: Cytotoxicity against Homo sapiens (human) A549 cells assessed as growth inhibition at 10 uM after 48 hr by coulter counter analysis; settings: A549, 48 h, read-out: GI
NCI-H23 = test: Cytotoxicity against Homo sapiens (human) NCI-H23 cells assessed as growth inhibition at 10 uM after 48 hr by coulter counter analysis; settings: NCI-H23, 48 h, read-out: GI
OVCAR-8 = test: Cytotoxicity against Homo sapiens (human) OVCAR8 cells assessed as growth inhibition at 10 uM after 48 hr by coulter counter analysis; settings: OVCAR-8, 48 h, read-out: GI
OVCAR-4 = test: Cytotoxicity against Homo sapiens (human) OVCAR4 cells assessed as growth inhibition at 10 uM after 48 hr by coulter counter analysis; settings: OVCAR-4, 48 h, read-out: GI
DU-145 = test: Cytotoxicity against Homo sapiens (human) DU145 cells assessed as growth inhibition at 10 uM after 48 hr by coulter counter analysis; settings: DU-145, 48 h, read-out: GI
SF-295 = test: Cytotoxicity against Homo sapiens (human) SF295 cells assessed as growth inhibition at 10 uM after 48 hr by coulter counter analysis; settings: SF-295, 48 h, read-out: GI
SK-OV-3 = test: Cytotoxicity against Homo sapiens (human) SKOV3 cells assessed as growth inhibition at 10 uM after 48 hr by coulter counter analysis; settings: SK-OV-3, 48 h, read-out: GI

Structure (SMILES)	inhibition of growth at 10 µM (SF-539)	inhibition of growth at 10 µM (COLO 205)	inhibition of growth at 10 µM (SNB-19)	inhibition of growth at 10 µM (M14)	inhibition of growth at 10 µM (Malme-3M)	inhibition of growth at 10 µM (MDA-MB-468)	inhibition of growth at 10 µM (HOP-62)	inhibition of growth at 10 µM (EKVX)	inhibition of growth at 10 µM (UACC-62)	inhibition of growth at 10 µM (TK-10)	inhibition of growth at 10 µM (SNB-75)	inhibition of growth at 10 µM (PC-3)	inhibition of growth at 10 µM (OVCAR-3)	inhibition of growth at 10 µM (HT-29)	inhibition of growth at 10 µM (A498)	inhibition of growth at 10 µM (SN12C)	inhibition of growth at 10 µM (SW-620)	inhibition of growth at 10 µM (SF-268)	inhibition of growth at 10 µM (KM12)	inhibition of growth at 10 µM (BT-549)	further results
O=c1c2ccccc2nc(SCc2ccc([N+](=O)[O-])cc2)n1CCc1ccccc1	< 10%	< 10%	< 10%	< 10%	< 10%	3%	< 10%	19%	22%	< 10%	< 10%	< 10%	< 10%	15%	< 10%	< 10%	< 10%	< 10%	< 10%	< 10%	inhibition of growth at 10 µM (HCC 2998): < 10%; inhibition of growth at 10 µM [1]: 12%; inhibition of growth at 10 µM (HCT-116): 20%; inhibition of growth at 10 µM (LOX IMVI): < 10%; inhibition of growth at 10 µM (UO-31): < 10%; inhibition of growth at 10 µM (CAKI-1): 17%; inhibition of growth at 10 µM (SK-MEL-5): < 10%; inhibition of growth at 10 µM (A549): 16%; inhibition of growth at 10 µM (NCI-H23): 15%; inhibition of growth at 10 µM (OVCAR-8): < 10%; inhibition of growth at 10 µM (OVCAR-4): < 10%; inhibition of growth at 10 µM (DU-145): 24%; inhibition of growth at 10 µM (SF-295): < 10%; inhibition of growth at 10 µM (SK-OV-3): < 10%
CSc1nc2ccccc2c(=O)n1CCc1ccccc1	< 10%	19%	< 10%	< 10%	< 10%	84%	12%	29%	12%	< 10%	< 10%	33%	< 10%	< 10%	18%	< 10%	12%	< 10%	28%	< 10%	inhibition of growth at 10 µM (HCC 2998): < 10%; inhibition of growth at 10 µM [1]: 18%; inhibition of growth at 10 µM (HCT-116): 37%; inhibition of growth at 10 µM (LOX IMVI): 11%; inhibition of growth at 10 µM (UO-31): 37%; inhibition of growth at 10 µM (CAKI-1): < 10%; inhibition of growth at 10 µM (SK-MEL-5): 19%; inhibition of growth at 10 µM (A549): 12%; inhibition of growth at 10 µM (NCI-H23): 16%; inhibition of growth at 10 µM (OVCAR-8): < 10%; inhibition of growth at 10 µM (OVCAR-4): 21%; inhibition of growth at 10 µM (DU-145): < 10%; inhibition of growth at 10 µM (SF-295): < 10%; inhibition of growth at 10 µM (SK-OV-3): < 10%
O=c1c2ccccc2nc(SCc2nnc(S)n2Cc2ccccc2)n1CCc1ccccc1	< 10%	< 10%	< 10%	< 10%	< 10%	< 10%	< 10%	17%	17%	< 10%	< 10%	12%	< 10%	< 10%	< 10%	< 10%	< 10%	< 10%	< 10%	< 10%	inhibition of growth at 10 µM (HCC 2998): < 10%; inhibition of growth at 10 µM [1]: 16%; inhibition of growth at 10 µM (HCT-116): 24%; inhibition of growth at 10 µM (LOX IMVI): 14%; inhibition of growth at 10 µM (UO-31): < 10%; inhibition of growth at 10 µM (CAKI-1): < 10%; inhibition of growth at 10 µM (SK-MEL-5): < 10%; inhibition of growth at 10 µM (A549): 12%; inhibition of growth at 10 µM (NCI-H23): < 10%; inhibition of growth at 10 µM (OVCAR-8): < 10%; inhibition of growth at 10 µM (OVCAR-4): < 10%; inhibition of growth at 10 µM (DU-145): < 10%; inhibition of growth at 10 µM (SF-295): < 10%; inhibition of growth at 10 µM (SK-OV-3): < 10%
